This is an account of results in ChEMBL document CHEMBL3132803 (Medchemcomm, 2013).

pIC50: −log10 of the molar value.

For one series, the system named is Raji. Description: Cytotoxicity against human Raji cells assessed as inhibition of cell proliferation after 3 days by coulter counter analysis. It is filed as functional, cell-based. The settings on record: 72 h.
A short description of series [1]: Cytotoxicity against human […] cells assessed as inhibition of cell proliferation after 3 days by coulter counter analysis. The format is functional, cell-based. The settings on record: 72 h.
Another series deals with DU-145. Description: Cytotoxicity against human DU145 cells assessed as inhibition of cell proliferation after 24 hrs by MTT assay. The note with it: DU-145, 24 h. The format is functional, cell-based. On the technique in general: Tetrazolium dyes change colour on reduction, which living cells bring about.
For a further series, the system named is Serum. Description: Ratio of AUC in CSF to AUC in serum of Sprague-Dawley rat at 2.5 mg/kg, iv. Also noted: dose 2.5 mg/kg, route intravenous. It is filed as ADME, organism-based.
Series [2] in a line: AUC in Sprague-Dawley rat CSF at 2.5 mg/kg, iv administered as single dose by CE-UV analysis. It is filed as ADME, organism-based. Also noted: dose 2.5 mg/kg, route intravenous. The settings on record: cerebrospinal fluid.
Series [3] can be described thus: AUC in Sprague-Dawley rat serum at 2.5 mg/kg, iv administered as single dose by CE-UV analysis. It is filed as ADME, organism-based. Also noted: dose 2.5 mg/kg, route intravenous.

Take `CNC(=O)N[C@H]1[C@@H]2NC(=O)c3ccc(Br)n3[C@@H]2C[C@H]1O`: the pIC50 (in the series on Raji; in series [1]) was below 5.00 throughout.

Regarding `CN1C(=O)N[C@@H]2[C@H]3NC(=O)c4ccc(Br)n4[C@H]3C[C@@]21O`, in the series with DU-145, the pIC50 – broadly, the IC50 on a negative log10 scale, so that one unit is a factor of ten – is below 5.00.

Regarding `O=C1N[C@H]2[C@@H]3NC(=O)c4cccn4[C@@H]3C[C@H]2O1`, the pIC50 (in the series on Raji; in series [1]) was below 5.00 throughout.

On to `CNC(=O)N[C@H]1[C@@H]2NC(=O)c3cccn3[C@@H]2C[C@H]1O`, for which the pIC50 (with Raji; in series [1]) was below 5.00 in each case.

For `CN1C(=O)N[C@H]2[C@@H]3NC(=O)c4cccn4[C@@H]3C[C@]21O`, the results for the pIC50 (in the series with DU-145; in the series with Raji; in series [1]) were below 5.00, 5.50 and 5.52, respectively.

`CCN1C(=O)N[C@H]2[C@@H]3NC(=O)c4cccn4[C@@H]3C[C@]21O`: the pIC50 in the series with DU-145 was below 5.00.

With `CN1C(=O)N[C@H]2[C@@H]3NC(=O)c4ccc(Cl)n4[C@@H]3C[C@]21O`, the “Ratio AUC” value with Serum was 16%. The AUC (in general, concentration integrated over time) in series [2] stood at 3.75 µM·h; in series [3] it was 22.8 µM·h. In addition, the figures for the pIC50 (in the series with DU-145; in the series on Raji; in series [1]) were 5.92, 6.74 and 7.10, respectively.

With `CCN1C(=O)N[C@H]2[C@@H]3NC(=O)c4ccc(Cl)n4[C@@H]3C[C@]21O`, the “Ratio AUC” value in the series with Serum was 27%. Also, the AUC in series [2] turned out to be 10.1 µM·h; in series [3] it was 37.5 µM·h. Besides, the results for the pIC50 (with DU-145; in the series with Raji; in series [1]) were 5.59, 6.52 and 6.55, respectively.

As to `CCN1C(=O)N[C@H]2[C@@H]3NC(=O)c4cc(Cl)c(Cl)n4[C@@H]3C[C@]21O`, in the series with Serum, the “Ratio AUC” value is on record as 30.7%. Further, the exposure (AUC) in series [2] was 7.6 µM·h; in series [3], 24.8 µM·h. Moreover, the figures for the negative-log IC50 (pIC50) (in the series with DU-145; in the series with Raji; in series [1]) were 5.85, 6.21 and 6.36, respectively.

In the case of `CCN1C(=O)N[C@H]2[C@@H]3NC(=O)c4ccc(Br)n4[C@@H]3C[C@]21O`, the pIC50 in the series on DU-145 was below 5.00.

In the case of `COc1ccc(CN2C(=O)N[C@H]3[C@@H]4NC(=O)c5ccc(Br)n5[C@@H]4C[C@]32O)cc1`, the pIC50 with DU-145 is below 5.00.

Regarding `CN1C(=O)N[C@H]2[C@@H]3NC(=O)c4ccc(C5CC5)n4[C@@H]3C[C@]21O`, the pIC50 with DU-145 is 5.30; in the series with Raji, 6.40; in series [1], 6.00.

For `CN1C(=O)N[C@H]2[C@@H]3NC(=O)c4ccc(-c5ccccc5)n4[C@@H]3C[C@]21O`, the figures for the pIC50 (with DU-145; in the series with Raji; in series [1]) were 5.22, 5.42 and 5.82, respectively.

With `CN1C(=O)N[C@H]2[C@@H]3NC(=O)c4ccc(-c5ccc(N)cc5)n4[C@@H]3C[C@]21O`, the pIC50 with DU-145 is below 5.00.

Take `CN1C(=O)N[C@H]2[C@@H]3NC(=O)c4ccc(Br)n4[C@@H]3C[C@]21O` [AGELASTATIN A]: the AUC in series [2] was 3.41 µM·h; in series [3], 53.2 µM·h. Also, the pIC50 with DU-145 was 5.64; with Raji, 6.85; in series [1], 5.55.
